Experimental data reported in patent publication US5066676A, “Sulfonamido derivative inhibiting the aldose reductase enzyme system and pharmaceutical compositions containing them” (Laboratori Baldacci SpA, priority 1987, dated 1991).

Tests used:
Acute toxicity: rat = settings: in vivo, rat (Wistar), 20 ml/kg, read-out: % Death
From the text: (§1) The toxicity tests after only one administration have been carried out on two animal species (mice and rats), using two administration routes (os, iv).
(§2) The compounds have been administered by gastric probe, suspended in Methocell or by injection (iv) dissolved in physiological solution with the addition of sodium bicarbonate.
(§3) The animals have been kept under observation for 15 days. The controls have been carried out several times in the first days and twice a day in the next days. In the table 1 the conditions used and the results obtained are reported.
Wistar rats, of both sexes have been used of average weight of 120 g, fasted after 18 hours and with water at libitum. The conditions of stalling and the administration ways were the same as those reported in the preceeding paragraph (acute toxicity: mouse).

Acute toxicity: mice = settings: in vivo, mouse (Swiss), read-out: % Death
Method: as §1
For these tests Swiss mice have been used, of both sexes, having average weight 20 g, fasted after 18 hours and administered with water ad libitum. The animals were maintained under standard environment conditions (temperature: 20°-22° C. and moisture 50%).
as §2, §3

aldose reductase = biological target: T1, aldose reductase (Bos taurus, UniProt P16116); experiment: In vitro inhibition of aldose reductase activity of raw extracts from bovine crystalline lens; format: biochemical; settings: for IC50: glyceraldehyde substrate, NADPH, pH 6.8, 37° C., read-out: IC50 on the aldose reductase activity of raw extracts originating from bovine crystalline lens; for inhibiting action of the aldose reductase activity (in words): bovine lens extract
T1 construct: 4 bovine crystalline lenses (8 g) are homogenized by means of Potter in ice bath; from tissue; host or cells: bovine crystalline lens
Method: "In vitro" tests have been carried out to evalute the inhibition of the aldose reductase activity, prepared from the extract of bovine crystalline lenses.
PREPARATION OF THE RAW EXTRACTS
4 bovine crystalline lenses (8 g) are homogenized by means of Potter in ice bath with 40 ml of 50 mM phosphate buffer, pH 6.8, containing 2-mercaptoethanol pH ([…]). After centrifugation (12.000×g -20 min-4° C.) the supernatant is brought to 40% saturation with an ammonium sulphate and centrifugated again (14.000×g). The supernatant is then brought to the 80% saturation ((NH4)2 SO4) and, after centrifugation for 20 minutes and at 14.000×g, the sedimented matter is recovered and suspended in 7 ml of phosphate buffer. The enzymatic preparation is dialyzed by ultrafiltration with AMICON ultrafiltration cell.
DOSAGE OF THE ENZYMATIC ACTIVITY
The reference cuvette contains all the several substances apart from the substrate.

[1] = tested on: galactosemic cataract in the rat; experiment: Action on the appearance of the galactosemic cataract (rat); format: in vivo
Method: (§4) With the compound bearing the abbreviation ARI 6 the following tests have been carried out in the rat and in the rabbit.
Action on the appearance of the galactosemic cataract (rat)
Effects of the administration of ARI-6 (5 and 25 mg/kg/die, os)
on the appearance of the galactosemic cataract in the rat.
[…] In the brackets the number of animals for each group is indicated.
The diet contains D-galactose 50%.
Effects of the administration of ARI-1 (5 and 25 mg/kg/die, os)

[2] = tested on: diabetic cataract in the rat; experiment: Action on the appearance of the diabetic cataract (rat); format: in vivo; settings: Table 7, 25 mg/kg/die per os
Method: as §4
Action on the appearance of the diabetic cataract (rat).
Effects of the administration of ARI 6 (25 mg/kg/die, per os)
on the appearance of the diabetic cataract in the rat.
The values are expressed as percentages. Within brackets there are indicated the animals for each group.
Effects of the administration of ARI-1 (25 mg/kg/die, per os)

[3] = Table 6, 5 mg/kg/die os, day 5 of diet
[4] = Table 6, 5 mg/kg/die os, day 10 of diet, * p < 0.05 vs controls
[5] = Table 6, 5 mg/kg/die os, day 15 of diet, * p < 0.05 vs controls
[6] = Table 6, 5 mg/kg/die os, day 20 of diet, * p < 0.05 vs controls
[7] = Table 6, 5 mg/kg/die os, day 25 of diet, * p < 0.05 vs controls
[8] = Table 6, 5 mg/kg/die os, day 30 of diet, * p < 0.05 vs controls
[9] = Table 6, 5 mg/kg/die os, day 35 of diet, * p < 0.05 vs controls
[10] = Table 6, 5 mg/kg/die os, day 40 of diet, * p < 0.05 vs controls
[11] = Table 6, 5 mg/kg/die os, day 45 of diet, * p < 0.05 vs controls
[12] = Table 6, 5 mg/kg/die os, day 50 of diet
[13] = Table 6, 25 mg/kg/die os, day 5 of diet
[14] = Table 6, 25 mg/kg/die os, day 10 of diet, * p < 0.05 vs controls
[15] = Table 6, 25 mg/kg/die os, day 15 of diet, * p < 0.05 vs controls
[16] = Table 6, 25 mg/kg/die os, day 20 of diet, * p < 0.05 vs controls
[17] = Table 6, 25 mg/kg/die os, day 25 of diet, * p < 0.05 vs controls
[18] = Table 6, 25 mg/kg/die os, day 30 of diet, * p < 0.05 vs controls
[19] = Table 6, 25 mg/kg/die os, day 35 of diet, * p < 0.05 vs controls
[20] = Table 6, 25 mg/kg/die os, day 40 of diet, * p < 0.05 vs controls
[21] = Table 6, 25 mg/kg/die os, day 45 of diet, * p < 0.05 vs controls
[22] = Table 6, 25 mg/kg/die os, day 50 of diet
[23] = day 10 from streptozotocine, * p < 0.05 vs controls
[24] = day 15 from streptozotocine, * p < 0.05 vs controls
[25] = day 20 from streptozotocine, * p < 0.05 vs controls
[26] = day 25 from streptozotocine, * p < 0.05 vs controls
[27] = day 30 from streptozotocine, * p < 0.05 vs controls
[28] = day 35 from streptozotocine, * p < 0.05 vs controls
[29] = day 40 from streptozotocine, * p < 0.05 vs controls
[30] = day 45 from streptozotocine, * p < 0.05 vs controls
[31] = day 50 from streptozotocine, * p < 0.05 vs controls

SMILES: Cc1cc(C)c(S(=O)(=O)N(C)CC(=O)O)cc1S(=O)(=O)N(C)CC(=O)O [ARI 1, 4,6-dimethyl-1,3-bis (N-methyl-N-caboxymethl) sulfamoybenzene]
- mortality at 360 h (Acute toxicity: rat; po, 5000 mg/kg/os): 0%
- mortality at 360 h (Acute toxicity: rat; 500 mg/kg/iv): 0%
- mortality at 360 h (Acute toxicity: mice; po, 5000 mg/kg/os): 0%
- mortality at 360 h (Acute toxicity: mice; 500 mg/kg/iv, 20 ml/kg): 0%
- IC50 (aldose reductase): 3600 nM
- number of eyes with cataract on the total number of observed eyes [1, 3]: 0/20
- percentage of eyes with cataract [1, 3]: 0.0%
- number of eyes with cataract on the total number of observed eyes [1, 4]: 0/20
- percentage of eyes with cataract [1, 4]: 0.0%
- number of eyes with cataract on the total number of observed eyes [1, 5]: 0/20
- percentage of eyes with cataract [1, 5]: 0.0%
- number of eyes with cataract on the total number of observed eyes [1, 6]: 0/20
- percentage of eyes with cataract [1, 6]: 0.0%
- number of eyes with cataract on the total number of observed eyes [1, 7]: 3/20
- percentage of eyes with cataract [1, 7]: 15.0%
- number of eyes with cataract on the total number of observed eyes [1, 8]: 4/20
- percentage of eyes with cataract [1, 8]: 20.0%
- number of eyes with cataract on the total number of observed eyes [1, 9]: 8/20
- percentage of eyes with cataract [1, 9]: 40.0%
- number of eyes with cataract on the total number of observed eyes [1, 10]: 8/20
- percentage of eyes with cataract [1, 10]: 100.0%
- number of eyes with cataract on the total number of observed eyes [1, 11]: 20/20
- percentage of eyes with cataract [1, 11]: 100.0%
- number of eyes with cataract on the total number of observed eyes [1, 12]: 20/20
- percentage of eyes with cataract [1, 12]: 100.0%
- number of eyes with cataract on the total number of observed eyes [1, 13]: 0/20
- percentage of eyes with cataract [1, 13]: 0.0%
- number of eyes with cataract on the total number of observed eyes [1, 14]: 0/20
- percentage of eyes with cataract [1, 14]: 0.0%
- number of eyes with cataract on the total number of observed eyes [1, 15]: 0/20
- percentage of eyes with cataract [1, 15]: 0.0%
- number of eyes with cataract on the total number of observed eyes [1, 16]: 0/20
- percentage of eyes with cataract [1, 16]: 0.0%
- number of eyes with cataract on the total number of observed eyes [1, 17]: 0/20
- percentage of eyes with cataract [1, 17]: 0.0%
- number of eyes with cataract on the total number of observed eyes [1, 18]: 0/20
- percentage of eyes with cataract [1, 18]: 0.0%
- number of eyes with cataract on the total number of observed eyes [1, 19]: 0/20
- percentage of eyes with cataract [1, 19]: 0.0%
- number of eyes with cataract on the total number of observed eyes [1, 20]: 3/20
- percentage of eyes with cataract [1, 20]: 15.0%
- number of eyes with cataract on the total number of observed eyes [1, 21]: 5/20
- percentage of eyes with cataract [1, 21]: 25.0%
- number of eyes with cataract on the total number of observed eyes [1, 22]: 20/20
- percentage of eyes with cataract [1, 22]: 100.0%
- number of eyes with cataract with respect the total number of observed eyes ([2]; day 5 from streptozotocine): 0/20
- percentage of eyes with cataract ([2]; day 5 from streptozotocine): 0.0%
- number of eyes with cataract with respect the total number of observed eyes [2, 23]: 0/20
- percentage of eyes with cataract [2, 23]: 0.0%
- number of eyes with cataract with respect the total number of observed eyes [2, 24]: 0/20
- percentage of eyes with cataract [2, 24]: 0.0%
- number of eyes with cataract with respect the total number of observed eyes [2, 25]: 0/20
- percentage of eyes with cataract [2, 25]: 0.0%
- number of eyes with cataract with respect the total number of observed eyes [2, 26]: 0/20
- percentage of eyes with cataract [2, 26]: 0.0%
- number of eyes with cataract with respect the total number of observed eyes [2, 27]: 0/20
- percentage of eyes with cataract [2, 27]: 0.0%
- number of eyes with cataract with respect the total number of observed eyes [2, 28]: 0/20
- percentage of eyes with cataract [2, 28]: 0.0%
- number of eyes with cataract with respect the total number of observed eyes [2, 29]: 4/20
- percentage of eyes with cataract [2, 29]: 20.0%
- number of eyes with cataract with respect the total number of observed eyes [2, 30]: 6/20
- percentage of eyes with cataract [2, 30]: 30.0%
- number of eyes with cataract with respect the total number of observed eyes [2, 31]: 20/20
- percentage of eyes with cataract [2, 31]: 100.0%

SMILES: CN(CC(=O)O)S(=O)(=O)c1ccc2oc3ccc(S(=O)(=O)N(C)CC(=O)O)cc3c(=O)c2c1 [ARI 9, 2,7-bis (N-methyl-N-carboxymethyl) sulfamoylxanthone]
- inhibiting action of the aldose reductase activity (in words) (aldose reductase): higher activity, with respect to the of sorbinil and of ARI 1
- IC50 (aldose reductase): 1000 nM

SMILES: CN(CC(=O)O)S(=O)(=O)c1ccc2oc3ccc(F)cc3c(=O)c2c1 [ARI 8, 7-fluoro-2-(N-methyl-N-carboxymethyl)sulfamoylxanthone]
- mortality at 360 h (Acute toxicity: rat; po, 5000 mg/kg/os): 30%
- mortality at 360 h (Acute toxicity: rat; 500 mg/kg/iv): 40%
- mortality at 360 h (Acute toxicity: rat; 400 (unit and route not given)): 0%
- mortality at 360 h (Acute toxicity: mice; po, 5000 mg/kg/os): 10%
- mortality at 360 h (Acute toxicity: mice; 400 mg/kg/iv): 0%
- inhibiting action of the aldose reductase activity (in words) (aldose reductase): higher activity, with respect to the of sorbinil and of ARI 1
- IC50 (aldose reductase): 1000 nM
